Patent US7214495B2, “Screening method” (Takeda Pharmaceutical Company Limited, priority 2002, dated 2007)

Tests used:
[1] = system: MIN6 cells; assay: FLIPR intracellular calcium assay using MIN6; type: cell-based, mouse; conditions: 10 μM fatty acid
Description: Mouse pancreatic β cell line MIN6 incubated in a flask was scraped using PBS containing 2.5 mM EDTA and diluted so as to contain 3×10^5 cells/1 mL of the medium. The dilution was dispensed in a Black welled 96-well plate (Coster) in 100 μL/well, followed by incubation in a CO2 incubator for 2 days. The medium used was 4.5 g/l of glucose-containing Dulbecco's Modified Eagle Medium (DMEM, Invitrogen, Inc.) supplemented with 15% fetal calf serum (ThermoTrace, Inc.), 5.5 μM 2-mercaptethanol (Invitrogen, Inc.), 20 mM HEPES pH 7.3, 100 U/ml penicillin and 100 μg/ml streptomycin. To the thus prepared MIN6 cells, various fatty acids (10 μM) were added and the changes in intracellular calcium level in this case were measured using FLIPR (Molecular Device). The changes in the intracellular calcium ion level on FLIPR were assayed in accordance with the procedures described in EXAMPLE 24.

[2] = system: mouse pancreatic β cell line MIN6; assay: Insulin secretion from MIN6 in KRBH buffer (immunoassay); type: cell-based; conditions: for insulin secretion enhancing activity: 22 mM glucose KRBH, 90 minutes; for insulin secretion activity in BSA-containing buffer / insulin secretion enhancing activity in buffer containing Nifedipine / insulin secretion enhancing activity in PD98059-containing buffer / insulin secretion enhancing activity, glucose dependency: 10 μM fatty acid; for insulin secretion activity in BSA-containing buffer: 0.1% fatty acid-free BSA; for insulin secretion enhancing activity in buffer containing Nifedipine: Nifedipine 10 μM; for insulin secretion enhancing activity in PD98059-containing buffer: PD98059 50 μM; for insulin secretion enhancing activity, glucose dependency: high glucose level conditions of at least 11 mM (0, 5.5, 11, 22 mM tested); for insulin secretion enhancing activity in buffer without Ca^2+ ions: 10 μM, no Ca^2+ ions, 0.1 mM EGTA, 22 mM glucose; for insulin secretion enhancing activity in m40i103-introduced MIN6: GPR40-specific siRNA m40i103 introduced; for insulin secretion enhancing activity in MIN6 introduced with Scramble II duplex siRNA: random siRNA control
Description: The mouse pancreatic β cell line MIN6 incubated in a flask was scraped in PBS containing 2.5 mM EDTA and plated in a 96-well plate followed by incubation for 2 days. The medium used was the same as in EXAMPLE 24, namely, 4.5 g/l of glucose-containing Dulbecco's Modified Eagle Medium (DMEM, Invitrogen, Inc.) supplemented with 15% fetal calf serum (ThermoTrace, Inc.), 5.5 μM 2-mercaptethanol (Invitrogen, Inc.), 20 mM HEPES pH 7.3, 100 U/ml penicillin and 100 μg/ml streptomycin. The cells were washed twice with modified Krebs-Ringer bicarbonate buffer (KRBH, 116 mM NaCl, 4.7 mM KCl, 1.2 mM KH2PO4, 1.2 mM MgSO4, 2.5 mM CaCl2, 25 mM NaHCO3, 24 mM HEPES, pH 7.3), followed by preincubation at 37° C. in 5% CO2 for 30 minutes. The fatty acid diluted/prepared using the aforesaid KRBH buffer added with 22 mM glucose was added to the cells after the preincubation, followed by incubation under the conditions of 37° C. in 5% CO2 for 90 minutes. After the incubation, the supernatant of the cells was recovered and stored in a frozen state. The insulin content in the supernatant was assayed using an insulin immunoassay kit commercially available (Amersham Pharmacia, Inc.).
Based on the method of EXAMPLE 25, effects of glucose level when added with fatty acids were examined. The level of glucose, which was added to KRBH upon the addition of fatty acids, was varied to 0, 5.5, 11 and 22 mM to study the effects.
The insulin secretion enhancing activity in the m40i103-introduced MIN6 cells using HVJ Envelope VECTOR KIT GenomONE based on the method of EXAMPLE 18 was examined. The insulin secretion enhancing activity by fatty acids was examined according to the method of EXAMPLE 25.
Based on the procedures of EXAMPLE 25, an essential prerequisite of Ca^2+ ions in the extracellular fluid was examined. In preincubation and incubation with a sample, Ca^2+ ions were removed and 0.1 mM EGTA, which was a reagent for chelating Ca^2+ ions, was further added, and then the insulin secretion enhancing activity by fatty acids was examined in this case.
Based on the method of EXAMPLE 25, effects of Ca^2+ channel blocker (Nifedipine) and MAP kinase inhibitor (PD98059) were examined. In preincubation and incubation with a sample, the insulin secretion enhancing activity by fatty acids was examined when Nifedipine (10 μM) or PD98059 (50 μM) was added.
It is known that fatty acids have the property of binding to albumin. Based on the method of EXAMPLE 25, effects were examined when bovine serum albumin (BSA) was present. In preincubation and incubation with a sample, the insulin secretion activity by fatty acids was examined when 0.1% BSA was added to the buffer.

[3] = molecular target: T1, human GPR40 (Homo sapiens, UniProt O14842); assay: EC50 by FLIPR calcium assay in CHO cells stably expressing human GPR40; type: cell-based; conditions: intracellular calcium, FLIPR, stable CHO line; read-out: EC50 Human GPR40
T1 construct: The resulting fragment (ca. 1 kb) was introduced into vector pAKKO-111, which was used for transfection of CHO cells; expressed in transfected cells
T1 sequence (O14842 whole entry, the tested form may be a part): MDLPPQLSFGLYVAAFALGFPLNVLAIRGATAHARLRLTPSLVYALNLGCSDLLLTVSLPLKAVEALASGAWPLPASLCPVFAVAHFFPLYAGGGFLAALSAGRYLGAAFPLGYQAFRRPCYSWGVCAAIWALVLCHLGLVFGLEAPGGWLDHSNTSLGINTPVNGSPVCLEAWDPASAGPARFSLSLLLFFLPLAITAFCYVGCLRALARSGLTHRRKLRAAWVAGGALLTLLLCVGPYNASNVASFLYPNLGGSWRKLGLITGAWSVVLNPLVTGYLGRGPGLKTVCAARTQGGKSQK
Description: (§1) For determination of EC50 values, the CHO cell lines in which human-, mouse- and rat-derived GPR40 was stably expressed were used. Unless otherwise indicated, these CHO cell lines were incubated in α-MEM medium (Invitrogen) supplemented with 10% fetal calf serum (Invitrogen).
(§2) On the day before assay, the cells incubated to almost confluent stage were rinsed with PBS (Invitrogen), then scraped in 0.05% trypsin-EDTA solution (Invitrogen) and recovered by centrifugal operation. The number of the cells obtained was counted and diluted so as to contain 3×10^5 cells/1 mL of the medium. The dilution was dispensed in a Black welled 96-well plate (Coster) in 100 μL/well, followed by incubation overnight in a CO2 incubator. To the thus prepared CHO cells, various test samples were added and the changes in intracellular calcium level in this case were measured using FLIPR (Molecular Device). In order to determine the changes in the intracellular calcium ion level on FLIPR, the cells were pre-treated by the following procedures.
(§3) First, for the purpose of adding a fluorescent dye Fluo-3 AM (DOJIN) to the cells or washing the cells immediately before the FLIPR assay, an assay buffer was prepared. A solution obtained by adding 20 mL of 1M HEPES (pH 7.4) (DOJIN) to 1000 mL of HBSS (Invitrogen) was prepared (hereinafter HBSS/HEPES solution), to which 10 mL of a solution mixture obtained by dissolving 710 mg of Probenecid (Sigma) in 5 mL of 1N NaOH and further adding 5 mL of HBSS/HEPES solution was added. The resulting solution was used as the assay buffer. Next, 50 μg of Fluo-3AM was dissolved in 21 μL of DMSO (Wako) and an equal volume of 20% Pulronic acid (Molecular Probes) was added to and mixed with the solution. The mixture was then added to 10.6 mL of the assay buffer supplemented with 105 μL of fetal calf serum to prepare a fluorescent dye solution. […], the medium for the CHO cells again plated in a Black welled 96-well plate was removed. Immediately thereafter, the fluorescent dye solution was dispensed in 100 μL each/well and the cells were incubated in a CO2 incubator for an hour so that the fluorescent dye was taken up into the cells. The cells after the incubation was washed with the assay buffer described above and set on FLIPR. […] After the pre-treatment above was made, the changes in intracellular calcium level after the addition of various test samples were measured on FLIPR.

[4] = molecular target: T2, Mouse GPR40 (Mus musculus, UniProt Q76JU9); assay: EC50 by FLIPR calcium assay in CHO cells stably expressing mouse GPR40; type: cell-based; conditions: intracellular calcium, FLIPR, stable CHO line; read-out: EC50 Mouse GPR40
T2 construct: expressed in transfected cells
T2 sequence (Q76JU9 whole entry): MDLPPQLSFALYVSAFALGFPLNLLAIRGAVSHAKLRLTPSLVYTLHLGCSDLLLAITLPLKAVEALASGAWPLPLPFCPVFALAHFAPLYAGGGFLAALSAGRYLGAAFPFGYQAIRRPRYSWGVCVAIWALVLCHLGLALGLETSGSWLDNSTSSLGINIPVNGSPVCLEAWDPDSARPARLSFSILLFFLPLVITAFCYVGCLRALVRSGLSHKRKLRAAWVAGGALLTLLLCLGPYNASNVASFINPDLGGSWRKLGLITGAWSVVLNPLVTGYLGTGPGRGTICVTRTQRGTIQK
Description: as §1, §2, §3

[5] = molecular target: T3, Rat GPR40 (Rattus norvegicus, UniProt Q8K3T4); assay: EC50 by FLIPR calcium assay in CHO cells stably expressing rat GPR40; type: cell-based; conditions: intracellular calcium, FLIPR, stable CHO line; read-out: EC50 Rat GPR40
T3 construct: expressed in transfected cells
T3 sequence (Q8K3T4 whole entry): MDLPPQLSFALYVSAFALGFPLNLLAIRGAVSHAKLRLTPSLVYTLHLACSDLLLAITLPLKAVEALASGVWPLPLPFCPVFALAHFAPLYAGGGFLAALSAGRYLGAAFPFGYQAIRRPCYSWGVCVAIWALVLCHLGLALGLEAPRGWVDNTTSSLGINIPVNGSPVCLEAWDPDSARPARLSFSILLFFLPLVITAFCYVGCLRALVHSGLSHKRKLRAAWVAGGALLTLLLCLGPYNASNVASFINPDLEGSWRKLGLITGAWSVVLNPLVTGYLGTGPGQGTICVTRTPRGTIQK
Description: as §1, §2, §3

Row | Compound | intracellular Ca^2+ level in MIN6 [1] | insulin secretion enhancing activity [2] | EC50 [3] | EC50 [4] | EC50 [5] | insulin secretion activity in BSA-containing buffer [2] | insulin secretion enhancing activity in buffer containing Nifedipine [2] | insulin secretion enhancing activity in PD98059-containing buffer [2] | insulin secretion enhancing activity, glucose dependency [2] | insulin secretion enhancing activity in buffer without Ca^2+ ions [2] | insulin secretion enhancing activity in m40i103-introduced MIN6 [2] | insulin secretion enhancing activity in MIN6 introduced with Scramble II duplex siRNA [2]
1 | CCCCC/C=C\C/C=C\C/C=C\C/C=C\CCCC(=O)O [Arachidonic acid (C20:4), Arachidonic acid] | increased | significantly noted | 2.4 ± 0.6 µM | 5.4 ± 0.8 µM | 8 ± 0.6 µM | – | – | – | – | – | – | –
2 | CC/C=C\C/C=C\C/C=C\C/C=C\C/C=C\C/C=C\CCC(=O)O [Docosahexaenoic acid (C22:6), 4Z,7Z,10Z,13Z,16Z,19Z-docosahexaenoic acid] | increased | significantly noted | 1.1 ± 0.3 µM | 16 ± 4.7 µM | 13 ± 1.7 µM | – | – | – | – | – | – | –
3 | CCCCC/C=C\C/C=C\CCCCCCCC(=O)O [Linoleic acid (C18:2), Linoleic acid] | increased | significantly noted | 1.8 ± 0.1 µM | 2.9 ± 0.3 µM | 4.1 ± 0.5 µM | almost suppressed | not appreciated | same results as in ordinary buffer | remarkable | not observed | no longer noted | retained
4 | CCCCC/C=C\C/C=C\C/C=C\CCCCC(=O)O [γ-Linolenic acid (C18:3), γ-Linolenic acid] | increased | significantly noted | 4.6 ± 1.6 µM | 5.2 ± 0.6 µM | 5.4 ± 1.1 µM | – | – | – | – | not observed | no longer noted | retained
5 | CCCCCCCC/C=C\CCCCCCCC(=O)O [Oleic acid (C18:1), Oleic acid] | increased | significantly noted | 2 ± 0.3 µM | 2.7 ± 0.5 µM | 3.4 ± 0.4 µM | almost suppressed | not appreciated | same results as in ordinary buffer | remarkable | not observed | – | –
